From the NIST ThermoML archive (doi:10.1016/j.jct.2008.07.009)
Numbers after ± are expanded uncertainties.

Experiment: xn = mol fraction of the nth substance listed
Settings: 101 kPa, Liquid, Vibrating tube method

CC(=O)N1CCOCC1 [4-acetylmorpholine] + c1ccccc1
mass density [kg/m3]
Settings | 293.15 K | 303.15 K | 313.15 K | 323.15 K | 333.15 K | 343.15 K
x2 = 0.0546 | 1104.6 ± 6.1 | 1096.7 ± 6.1 | 1088.2 ± 6.1 | 1079.6 ± 6.1 | 1071 ± 6.1 | 1062.4 ± 6.1
x2 = 0.1127 | 1094.9 ± 6.1 | 1086.8 ± 6.1 | 1078.1 ± 6 | 1069.3 ± 6 | 1060.6 ± 6 | 1051.8 ± 6
x2 = 0.1568 | 1087.2 ± 6 | 1079 ± 6 | 1070.2 ± 6 | 1061.2 ± 6 | 1052.4 ± 6 | 1043.5 ± 6
x2 = 0.2099 | 1078 ± 6 | 1069.6 ± 6 | 1060.6 ± 6 | 1051.3 ± 6 | 1042.3 ± 6 | 1033.2 ± 6
x2 = 0.2673 | 1067.5 ± 6 | 1058.9 ± 6 | 1049.8 ± 6 | 1040.5 ± 6 | 1031.4 ± 6 | 1022.1 ± 6
x2 = 0.3128 | 1059 ± 6 | 1050.2 ± 6 | 1040.9 ± 6 | 1031.6 ± 6 | 1022.2 ± 6 | 1012.9 ± 6
x2 = 0.3564 | 1050.6 ± 6 | 1041.7 ± 6 | 1032.3 ± 6 | 1022.8 ± 6 | 1013.4 ± 6 | 1003.9 ± 6
x2 = 0.4056 | 1040.8 ± 6 | 1031.7 ± 6 | 1022.2 ± 6 | 1012.5 ± 6 | 1002.9 ± 6 | 993.3 ± 6
x2 = 0.4562 | 1030.1 ± 6 | 1020.8 ± 6 | 1011.2 ± 6 | 1001.4 ± 6 | 991.7 ± 6 | 981.8 ± 6
x2 = 0.5039 | 1019.5 ± 6 | 1010.1 ± 6 | 1000.3 ± 6 | 990.4 ± 6 | 980.6 ± 6 | 970.6 ± 6
x2 = 0.5683 | 1004.5 ± 6 | 994.9 ± 6 | 984.9 ± 6 | 974.9 ± 6 | 964.9 ± 6 | 954.8 ± 6
x2 = 0.6138 | 993.3 ± 6 | 983.5 ± 6 | 973.5 ± 6 | 963.4 ± 6 | 953.2 ± 6 | 942.6 ± 6
x2 = 0.6866 | 974.4 ± 6 | 964.5 ± 6 | 954.3 ± 6 | 943.9 ± 6 | 933.6 ± 6 | 923.3 ± 6
x2 = 0.7437 | 958.7 ± 6 | 948.6 ± 6 | 938.3 ± 6 | 927.7 ± 6 | 917.6 ± 6 | 907.1 ± 6
x2 = 0.8033 | 941.3 ± 6 | 931.1 ± 6 | 920.7 ± 6 | 910.2 ± 6 | 899.7 ± 6 | 889.2 ± 6
x2 = 0.8659 | 922.4 ± 6 | 912.1 ± 6 | 901.6 ± 6 | 891 ± 6 | 880.5 ± 6 | 869.8 ± 6
x2 = 0.9154 | 906.8 ± 6 | 896.3 ± 6 | 885.8 ± 6 | 875.2 ± 6 | 864.6 ± 6 | 853.8 ± 6
x2 = 0.9687 | 889.4 ± 6 | 878.9 ± 6 | 868.4 ± 6 | 857.7 ± 6 | 847 ± 6 | 836.3 ± 6
